≈ marks a conversion by molar mass, not a printed value. Read-outs that look alike come from different tables or passages of the source.
How the values were obtained:
[1] = test system: transplanted tumor of human bladder cancer cell T-24; assay: T-24 transplanted tumor in nude mice; details: for Tumor Volume (mm3) (d30): d 30
Description: (§1) Then cell concentration was adjusted to 1×10^7/ml with matrigel, then each nude mouse was inoculated subcutaneously with 0.2 ml of cells at its right armpit and recorded as the first day of inoculation. When the tumor grows to be greater than or equal to 100 mm^3, the mice were randomly divided into 11 groups with 6 mice in each group: isovaleryl spiramycin I groups with doses of 25, 50 and 100 mg/kg, isovaleryl spiramycin II groups with doses of 25, 50 and 100 mg/kg, and isovaleryl spiramycin III groups with doses of 25, 50 and 100 mg/kg. Each group was continuously administered intragastrically for 30 days with a dose of 20 ml/kg. The mice were sacrificed the next day after drug withdrawal and the indicators were tested. The long diameter and short diameter of the tumor, and the body weight of each mouse were recorded every 3 days from drug administration to nude mouse sacrifice.
(§2) The body weight of the nude mice and the long diameter (a) and short diameter (b) of the transplanted tumor were measured every 3 days, and the tumor volume (v), relative tumor volume (RTV) and relative tumor proliferation rate (T/C) are calculated respectively according to the following formulas, wherein V=a×b^2/2; RTV=V/V0 (V0 is the tumor volume before administration, V is the tumor volume before sacrifice), and T/C (%)=treatment group RTV/model control group RTV×100%.
(§3) Each mouse was weighed and sacrificed. After the tumor was completely stripped off from the body of the mouse, the non-tumor tissues such as blood stains and fat were removed to weigh the tumor and calculate the tumor growth inhibition rate. The average tumor weight of each group of mice is used as an indicator of efficacy. Tumor growth inhibition rate (%)=(1−the average tumor weight of the treatment group/the average tumor weight of the model group)×100%.

[2] = test system: transplanted tumor of human non-small cell lung cancer cell H1299
Description: as §1, §2, §3

[3] = test system: transplanted tumor of human breast cancer cell MCF-7; assay: MCF-7 transplanted tumor in nude mice
Description: as §1, with “group: a model group, a cyclophosphamide group,” for “group:”
as §2, §3

[4] = test system: human bladder cancer cell T-24; details: T-24, MTT
From the text: (§4) The purpose of the assay is to evaluate the in vitro cell proliferation inhibition or cytotoxic activity of a tested sample.
(§5) Human breast cancer cells MCF-7 and MDA-MB-231, human hepatoma cells HepG2, human non-small cell lung cancer cells A549, human large cell lung cancer cells H460 and H1299, human renal clear cell adenocarcinoma cell 786-0, human renal cell adenocarcinoma cell 769-P, human glioma cell U251, human glioblastoma cell A172, human tissue lymphoma cell U937, human cervical cancer cell HeLa, human prostate cancer cell PC3, human pancreatic cancer cell PANC-1, human esophageal cancer cell TE-1, human gastric adenocarcinoma cell SGC7901, human colon cancer cell HT-29, human promyelocytic leukemia cell HL-60, human thyroid cancer cell TPC-1, and human bladder cancer cell T-24.
(§6) The inhibition rate of the medicament on tumor cell growth is calculated according to the following formula:
(§7) Tumor cell growth inhibition rate (%)=[A492 (negative control)−A492 (dosing group)]/A492 (negative control)×100%
(§8) And the half-inhibitory concentration (IC50) of the sample is determined therefrom.

[5] = test system: human thyroid cancer cell TPC-1; details: TPC-1, MTT
From the text: as §4, §5, §6, §7, §8

[6] = T-24, high dose (100 mg/kg in method) i.g. 30 days
[7] = T-24, low dose (25 mg/kg in method) i.g. 30 days
[8] = T-24, medium dose (50 mg/kg in method) i.g. 30 days
[9] = H1299, 25 mg/kg (low dose) i.g. 30 days
[10] = H1299, 50 mg/kg (medium dose) i.g. 30 days
[11] = H1299, 100 mg/kg (high dose) i.g. 30 days
[12] = MCF-7, 25 mg/kg (low dose) i.g. 30 days
[13] = MCF-7, 50 mg/kg (medium dose) i.g. 30 days
[14] = MCF-7, 100 mg/kg (high dose) i.g. 30 days

mouse weight compared with the model group ([1]; mouse, in vivo): no significant changes | mouse weight compared with the model group ([2]; mouse, in vivo): no significant changes | mouse weight compared with the model group ([3]; mouse, in vivo): no significant changes | IC50 [4]: 31.23 ± 1.47 µg/mL (≈ 31.8 µM) | IC50 [5]: 29.72 ± 4.02 µg/mL (≈ 30.2 µM)
SMILES: CCC(=O)O[C@@H]1CC(=O)O[C@H](C)C/C=C/C=C/[C@H](O[C@H]2CC[C@H](N(C)C)[C@@H](C)O2)[C@H](C)C[C@H](CC=O)[C@H](O[C@@H]2O[C@H](C)[C@@H](O[C@H]3C[C@@](C)(O)[C@@H](OC(=O)CC(C)C)[C@H](C)O3)[C@H](N(C)C)[C@H]2O)[C@H]1OC [Isovaleryl spiramycin III, isovaleryl spiramycin III]
Relative Tumor Proliferation Rate (T/C) [1, 6]: 39.39% | tumor growth inhibition rate [1, 6]: 61.30% | Relative Tumor Proliferation Rate (T/C) [1, 7]: 80.34% | tumor growth inhibition rate [1, 7]: 21.00% | tumor volume and relative tumor volume compared with the model group ([1]; T-24, low, medium and high doses, P<0.05): significantly lower | Relative Tumor Proliferation Rate (T/C) [1, 8]: 62.35% | tumor growth inhibition rate [1, 8]: 44.84% | Inhibition Rate (%) ([1]; dose 25 mg/kg): 21.00% | Relative Tumor Proliferation Rate (T/C) ([1]; dose 25 mg/kg): 80.34% | Relative Tumor Volume (RTV) ([1]; dose 25 mg/kg): 10.61 ± 2.24 | Tumor Weight ([1]; dose 25 mg/kg): 1.48 ± 0.43 g | Tumor Volume (mm3) (d 1) ([1]; dose 25 mg/kg): 135.55 ± 18.08 mm3 | Tumor Volume (mm3) (d30) ([1]; dose 25 mg/kg): 1427.95 ± 311.97 mm3 | Inhibition Rate (%) ([1]; dose 50 mg/kg): 44.84% | Relative Tumor Proliferation Rate (T/C) ([1]; dose 50 mg/kg): 62.35% | Relative Tumor Volume (RTV) ([1]; dose 50 mg/kg): 8.24 ± 0.38 | Tumor Weight ([1]; dose 50 mg/kg): 1.03 ± 0.42 g | Tumor Volume (mm3) (d 1) ([1]; dose 50 mg/kg): 136.32 ± 15.54 mm3 | Tumor Volume (mm3) (d30) ([1]; dose 50 mg/kg): 1123.28 ± 140.84 mm3 | Inhibition Rate (%) ([1]; dose 100 mg/kg): 61.30% | Relative Tumor Proliferation Rate (T/C) ([1]; dose 100 mg/kg): 39.39% | Relative Tumor Volume (RTV) ([1]; dose 100 mg/kg): 5.20 ± 0.71 | Tumor Weight ([1]; dose 100 mg/kg): 0.73 ± 0.20 g | Tumor Volume (mm3) (d 1) ([1]; dose 100 mg/kg): 134.53 ± 20.46 mm3 | Tumor Volume (mm3) (d30) ([1]; dose 100 mg/kg): 697.48 ± 130.89 mm3 | Body Weight (g) (d1) ([1]; mouse, in vivo, 25 mg/kg): 19.57 ± 0.52 g | Body Weight (g) (d30) ([1]; mouse, in vivo, 25 mg/kg): 25.72 ± 1.53 g | Body Weight (g) (d1) ([1]; mouse, in vivo, 50 mg/kg): 19.61 ± 0.44 g | Body Weight (g) (d30) ([1]; mouse, in vivo, 50 mg/kg): 26.47 ± 0.52 g | Body Weight (g) (d1) ([1]; mouse, in vivo, 100 mg/kg): 19.90 ± 0.58 g | Body Weight (g) (d30) ([1]; mouse, in vivo, 100 mg/kg): 25.05 ± 0.93 g | Inhibition Rate (tumor growth inhibition rate) [2, 9]: 13.11% | Relative Tumor Proliferation Rate (T/C) [2, 9]: 89.88% | Relative Tumor Volume (RTV) [2, 9]: 11.52 ± 2.51 | Tumor Volume (d 1) [2, 9]: 137.58 ± 14.95 mm3 | Tumor Volume (d 30) [2, 9]: 1565.97 ± 277.97 mm3 | Tumor Weight [2, 9]: 1.51 ± 0.30 g | Inhibition Rate (tumor growth inhibition rate) [2, 10]: 49.38% | Relative Tumor Proliferation Rate (T/C) [2, 10]: 48.11% | Relative Tumor Volume (RTV) [2, 10]: 6.17 ± 2.64 | Tumor Volume (d 1) [2, 10]: 137.82 ± 17.12 mm3 | Tumor Volume (d 30) [2, 10]: 816.87 ± 299.03 mm3 | Tumor Weight [2, 10]: 0.88 ± 0.20 g | Inhibition Rate (tumor growth inhibition rate) [2, 11]: 62.78% | Relative Tumor Proliferation Rate (T/C) [2, 11]: 32.43% | Relative Tumor Volume (RTV) [2, 11]: 4.16 ± 1.90 | Tumor Volume (d 1) [2, 11]: 137.09 ± 12.95 mm3 | Tumor Volume (d 30) [2, 11]: 557.82 ± 209.73 mm3 | Tumor Weight [2, 11]: 0.65 ± 0.17 g | tumor volume and relative tumor volume compared with the model group ([2]; H1299, low, medium and high doses, P<0.05): significantly lower | Inhibition Rate (tumor growth inhibition rate) [3, 12]: 26.75% | Relative Tumor Proliferation Rate (T/C) [3, 12]: 75.03% | Relative Tumor Volume (RTV) [3, 12]: 13.13 ± 3.15 | Tumor Volume (d 1) [3, 12]: 137.99 ± 20.99 mm3 | Tumor Volume (d 30) [3, 12]: 1758.49 ± 129.06 mm3 | Tumor Weight [3, 12]: 1.99 ± 0.81 g | Inhibition Rate (tumor growth inhibition rate) [3, 13]: 39.09% | Relative Tumor Proliferation Rate (T/C) [3, 13]: 54.92% | Relative Tumor Volume (RTV) [3, 13]: 9.61 ± 1.66 | Tumor Volume (d 1) [3, 13]: 109.95 ± 13.42 mm3 | Tumor Volume (d 30) [3, 13]: 1043.33 ± 113.01 mm3 | Tumor Weight [3, 13]: 1.66 ± 0.66 g | Inhibition Rate (tumor growth inhibition rate) ([3]; MCF-7, 50 mg/kg (medium dose) i.g. 30 days, listed as isovaleryl spiramycin III): 39.08% | Inhibition Rate (tumor growth inhibition rate) [3, 14]: 61.78% | Relative Tumor Proliferation Rate (T/C) [3, 14]: 34.90% | Relative Tumor Volume (RTV) [3, 14]: 5.17 ± 0.64 | Tumor Volume (d 1) [3, 14]: 113.14 ± 9.02 mm3 | Tumor Volume (d 30) [3, 14]: 684.21 ± 115.00 mm3 | Tumor Weight [3, 14]: 1.03 ± 0.54 g | Relative Tumor Proliferation Rate (T/C) ([3]; MCF-7, 100 mg/kg (high dose) i.g. 30 days, listed as isovaleryl spiramycin III): 34.91% | tumor volume and relative tumor volume compared with the model group ([3]; MCF-7, low, medium and high doses, P<0.05): significantly lower

From patent US20200163984A1, “USE OF ISOVALERYL SPIRAMYCIN I, II AND/OR III IN MANUFACTURING MEDICAMENT FOR TREATING AND/OR PREVENTING TUMOR, AND MEDICAMENT” (SHENYANG FUYANG PHARMACEUTICAL TECHNOLOGY CO., LTD., priority 2017, published 2020)
